{"source": "patent US11760784B2", "about": "“Compositions comprising PEDF-derived short peptides and uses thereof” (BRIM Biotechnology, Inc., priority 2016, dated 2023)", "key": {"[1]": {"system": "IL-6 mRNA", "experiment": "Ocular IL-6 mRNA by quantitative real-time PCR in CEC dry eye mice", "assay_type": "in vivo, C57BL6 mice", "details": "CEC 14 days, then topical PDSP for 5 days", "protocol": "(§1) Dry eye is associated with abnormalities in the pre-corneal tear film and subsequent inflammatory changes in the entire ocular surface including the adnexa, conjunctiva and cornea. (see, Hessen et al., “Dry eye: An Inflammatory Ocular Disease,” J. Ophthalmic Vis. Res., 2014, 9(2): 240-250). Therefore, the effects of PDSPs in corneal inflammatory responses were next examined. Briefly, C57BL6 mice were housed in CEC for 14 days (Day 0) and then treatment with PDSP or vehicle were performed for additional 5 days (Day 5). Then, mRNA levels for inflammatory factors were evaluated by quantitative real-time PCR.\n(§2) The total RNA was extracted from cells using TRIzol (Invitrogen) and treated with RNase free DNase I (Qiagen, Santa Clarita, CA) to remove genomic DNA and then purified with an RNA purification kit (Dynabeads; Invitrogen). […] Quantitative real-time PCR was performed in a GeneAmp 7700 sequence detection system (Applied Biosystems, Foster City, CA). […] All determinations were measured in triplicate. The cycle threshold (Ct) values corresponded to the PCR cycle number at which fluorescence emission in real time reaches a threshold above the base-line emission were analyzed using GeneAmp 7700 SDS software. The Ct value of the PCR product of interest and a control mRNA (GAPDH) were then used to calculate relative quantities of mRNA between samples."}, "[2]": {"system": "desiccating stress-induced dry eye", "experiment": "Corneal fluorescein staining in desiccating stress-induced dry eye (CEC) mice", "assay_type": "in vivo, C57BL/6 mice", "details": "CEC 14 days, then peptide for 3 days (FIG. 11)"}, "[3]": {"system": "TNF-α mRNA", "experiment": "Ocular TNF-α mRNA by quantitative real-time PCR in CEC dry eye mice", "assay_type": "in vivo, C57BL6 mice", "details": "CEC 14 days, then topical PDSP for 5 days", "protocol": "as §1, §2"}, "[4]": {"system": "desiccating stress-induced dry eye", "experiment": "Corneal fluorescein staining in desiccating stress-induced dry eye (CEC) mice", "assay_type": "in vivo, C57BL/6 mice", "protocol": "In an animal model for dry eye diseases, mice were placed in a controlled environment chamber (CEC) to induce dry eyes as previously described (Barabino et al., 2005). Mice placed in the CEC were exposed to a relative humidity (RH)<25%, temperature of 20 to 22° C., with an airflow of 15 L/min, 12 hours per day. Non-Stressed mice were kept in a normal environment (RH >50%, no air flow, temperature of 21-23° C.) for the same duration. After 14 days, non-stressed mice were treated with vehicle, while the stressed mice were treated with either a test peptide (e.g., the 29mer PDSP) or vehicle solution (Vehicle group) for 5 days. Then, the cornea was examined with fluorescein staining.\nSeven to 8-week-old female C57BL/6 mice were used for these experiments. Experimental procedures were approved by the Mackay Memorial Hospital Review Board and conducted according to the ARVO Statement for the Use of Animals in Ophthalmic and Vision Research.\nDry eye was induced by placing mice in a controlled environment chamber (CEC) as previously described (Barabino et al., 2005). Briefly, mice placed in the CEC were exposed to a relative humidity (RH)<25%, temperature of 20 to 22° C., and airflow of 15 L/min, 12 hours per day. Non-stressed (NS) mice without stress-induced dry eye were kept in a normal environment (RH >50%, no air flow, temperature of 21-23° C.) for the same duration. Corneal fluorescein staining and\nAnimals were anesthetized by an intraperitoneal injection of a mixture of zoletil (6 mg/kg) and xylazine (3 mg/kg). Corneal epithelial injury was determined by staining with topical fluorescein (Fluor-I-Strip, Ayerst Laboratories, Philadelphia, Pa.). Corneal fluorescein staining was examined with a slit-lamp biomicroscope under cobalt blue light and photographed with a digital camera. Dye staining of the cornea was scored in a manner as follows: score 0 for no punctuate staining; score 1 when less than one third of the cornea was stained; score 2 when two thirds or less was stained; and score 3 when more than two thirds was stained (Horwath-Winter J 2013).\nTo determine whether PDSP have therapeutic effects in a desiccating stress (DS)-induced ocular surface defects, mice were housed at controlled environment chamber (CEC) for 14 days to create ocular surface disruption. After 14 days in CEC, we used mice with fluorescence scores that are above 2 for the first experiments (FIG. 1A). Subsequently, dry eyes were treated topically with PDSP at 25-200 μM (3 times/day) or PDSP vehicle (1% CMC in BSS) for another 5 days while maintaining the same desiccating stress protocol.\nTo investigate whether the PDSP can suppress DS-induced corneal epithelial disruption, we applied the 14-day desiccating stress protocol to mice, and treated these mice topically with PDSP 3 times a day."}}, "data": [{"substance": "PDSP: 29mer, residues 93-121 of human PEDF: SLGAEQRTESIIHRALYYDLISSPDIHGT (SEQ ID NO:4) (listed as Homo sapiens)", "values": [{"measurement": "repression of ocular IL-6 mRNA expression compared to vehicle-treated group", "setting": "[1]", "value": 2.0, "unit": "fold"}, {"measurement": "corneal damage by corneal fluorescein staining, human vs mouse 29mer", "setting": "[2]", "value": "protection from corneal surface damages"}, {"measurement": "corneal damage by corneal fluorescein staining, human vs mouse 29mer", "setting": "[2]; listed as human PDSP", "value": "capable of restore the ocular surface damages"}, {"measurement": "repression of ocular TNF-α mRNA expression compared to vehicle-treated group", "setting": "[3]", "value": 1.9, "unit": "fold"}, {"measurement": "corneal fluorescein staining score (0 to 3)", "setting": "[4]; preventive: 100 μM PDSP topically 3 times a day from beginning of 14 days in CEC, vehicle 1.7±0.3", "value": "0.7±0.2"}, {"measurement": "corneal surface damage by fluorescein staining", "setting": "[4]; therapeutic: CEC 14 days to induce dry eye, then peptide on the eyes for 5 days", "value": "essentially gone"}]}]}
